# Assays:
# Btk = assay: Expression of Btk / pBtk in alveolar neutrophils of treated ALI mice, laser confocal microscopy; format: in vivo; conditions: LPS/IC ALI; 2 h after administration of ICs; FIG. 4B
# Method: Laser Confocal Microscopy: Purified alveolar neutrophils mounted on cytospins were incubated with the following primary antibodies: anti-mouse Btk, anti-mouse MyD88, anti-mouse MMP-9 (Santa Cruz Biotechnology), and anti-mouse pBtk (Invitrogen, Grand Island, N.Y.). Species specific antibodies conjugated with fluorescent dyes were subsequently applied to slides. Lung tissue sections, processed as routinely done in our laboratory (26, 28), were incubated with anti-mouse FcγRIII antibody (R&D Systems, Minneapolis, Minn.), or anti-mouse MMP-9 antibody (Santa Cruz Biotechnology), or with anti-neutrophil (Ly6G1A8) antibody (Bio X Cell, West Lebanon, N.H.) followed by fluorescence dye-conjugated secondary antibodies. Hoechst 33342 (Calbiochem, San Diego, Calif.) was employed to stain nuclei. Laser confocal microscopy was performed using PerkinElmer Ultra VIEW LCI confocal imaging system with Nikon TE2000-S fluorescence microscope and PlanApox60 immersion oil objective (numerical aperture [NA] 1.4) at room temperature. Ultra VIEW Imaging Suite software (version 5.5.0.4) was used for image processing.
# Laser confocal microscopy was employed to confirm the effectiveness of Btk blocking in alveolar neutrophils. […] The effectiveness of Btk silencing in alveolar neutrophils was 92%. […] These experiments were performed at 2 h after administration of ICs.
# thrombomodulin (TM) [1] = assay: Thrombomodulin in BAL fluid by Western blot, LPS/IC induced ALI; format: in vivo, mice; conditions: FIG. 6D
# Method: Western Blotting: BAL fluids were subjected to SDS PAGE electrophoresis, transferred onto PVDF membrane and further evaluated for the presence of thrombomodulin using anti-mouse TM antibody (M-17; Santa Cruz Biotechnology, Santa Cruz, Calif.). In some experiments cell culture media or cell lysates were analyzed for level of MPO or actin (EMD Millipore, Billerica, Mass. and Santa Cruz Biotechnology, respectively) or phospho-p40 phox (Santa Cruz Biotechnology).
# Endothelial damage in this ALI model was also examined by assessing the release of thrombomodulin (TM), which is a membrane protein expressed on the capillary endothelium (40, 52). A Western Blot analysis of BAL fluid samples was performed (FIG. 6D) from control mice (Saline), mice with LPS/IC induced ALI, and mice treated with siRNA specific for Btk, or MMP-9, or control siRNA. The bar graph in FIG. 6D includes data from 3 experiments. For each repetition a fold over a corresponding control was calculated. Means of all repetitions as well as associated standard deviations were graphed. […] The same was true for mice that received nonspecific control siRNA (p<0.05).
# alveolar neutrophils = assay: Uptake of alveolar neutrophils by mouse spleen macrophages (co-culture 1 h); format: cell-based; conditions: neutrophils from treated LPS/IC ALI mice versus ALI; FIG. 5B
# Method: Neutrophil Apoptosis/Uptake: Purified alveolar neutrophils were evaluated for the presence of cleaved caspase 3 as done routinely in our laboratory (13). Cells mounted on cytospins were incubated with anti-mouse cleaved caspase 3 antibody (Cell Signaling Technology, Danvers, Mass.), followed by dye-conjugated secondary antibody. Fluorescence intensity of cleaved caspase 3 was analyzed as described above. In addition, alveolar neutrophils were co-cultured with mouse spleen macrophages for 1 h (43, 44), and percentage of phagocytosed neutrophils was calculated. In separate sets of experiments bone marrow neutrophils (BMPMNs) were purified according to the previously published protocol (54) and cultivated for 24 h to induce spontaneous apoptosis. Some cells were cultured in the presence of LPS and anti-KC:KC immune complexes. In other experiments, BMPMNs were treated with siRNA specific for Btk (Santa Cruz Biotechnology) conjugated to F(ab′)2 fragments of the Ly6G1A8 antibody. Similarly conjugated control siRNA (Santa Cruz Biotechnology) or F(ab′)2 fragments of the Ly6G1A8 alone served as controls.
# In other experiments, purified alveolar neutrophils were co-cultured with mouse spleen macrophages for 1 h, and the percentage of phagocytosed neutrophils was assessed by counting numbers of neutrophils present inside macrophages. […]
# thrombomodulin (TM) [2] = assay: Thrombomodulin in BAL fluid by Western blot, flu induced ALI; format: in vivo, mice; conditions: FIG. 13
substance,measurement,setting,value
"Cont siRNA: control siRNA #8 (SEQ ID NO:26/27) conjugated to F(ab′)2 fragments of Ly6G1A8 (chain 1 UUCCUCUCCACGCGCAGUACAUUUA; chain 2 AAGGAGAGGUGCGCGUCAUGUAAAU; conjugated to antibody F(ab')2 fragment, attachment not given here; one strand is listed 3' to 5')",Btk in lung neutrophils,Btk,normal levels
same,levels of thrombomodulin (TM) in BAL fluid,thrombomodulin (TM) [1],significantly increased levels
same,uptake (phagocytosis) of apoptotic alveolar neutrophils by macrophages,alveolar neutrophils,no effect
same,levels of TM in BAL fluid,thrombomodulin (TM) [2],significantly increased levels

# Reference: patent publication US9982265B2, “Inhibition of Bruton's tyrosine kinase (Btk) in the lung to treat severe lung inflammation and lung injury” (BOARD OF REGENTS, THE UNIVERSITY OF TEXAS SYSTEM, priority 2014, dated 2018)
